These results are taken from publication PMC4764322, “An Unusual Member of the Papain Superfamily: Mapping the Catalytic Cleft of the Marasmius oreades agglutinin (MOA) with a Caspase Inhibitor” (PLoS ONE, 2016).

Residues, ends and D or L forms follow the SMILES beside them. *: point of attachment. Cbz = O=C(OCc1ccccc1)*; CH2F = FC*

Data set [1] has as its target T1, Marasmius oreades agglutinin (MOA) (Marasmius oreades, UniProt Q8X123).
T1 construct: wild-type full-length 293 aa cDNA (MOApT7-LO), E. coli BL21(DE3), no tag mentioned; homodimer; model residues 2-293, Met1 probably cleaved
As to the kind of experiment: X-ray crystal structure (co-crystal, […]-1.[…] Å). Conditions: calcium, imidazole pH 8.0. The data set is classed as binding.

Data set [2] concerns the molecule itself. As to the kind of experiment: crystal structure; MOA 5 mg/ml mixed with Galα1,3(Fucα1,2)Gal trisaccharide (1:20) and Z-VAD-fmk (1:3, 1:20 or 1:30 MOA:inhibitor); 0.1 M imidazole pH 8.0, 10-16% PEG 8000, 0.2 M calcium acetate, with or without 5% DMSO; space group P6(3)22; three data sets (ZVAD-direct, ZVAD-inverted, ZVAD-dual).

`CC(C)[C@H](NC(=O)OCc1ccccc1)C(=O)N[C@@H](C)C(=O)N[C@@H](CC(=O)O)C(=O)CF` [Z-VAD-fmk] (Cbz-Val-Ala-Asp-CH2F): the “X-ray crystal structure (co-crystal, 1.6-1.7 Å)” value in data set [1] (covalent, thioether with catalytic Cys215, direct and inverted orientations) is recorded as “the inhibitor molecule binds to the active site of MOA forming a thioether”.

On to `C[C@@H]1O[C@@H](O[C@H]2C(O)O[C@H](CO)[C@H](O)[C@@H]2O[C@H]2O[C@H](CO)[C@H](O)[C@H](O)[C@H]2O)[C@@H](O)[C@H](O)[C@@H]1O` (stereo partly drawn) [Galα1,3(Fucα1,2)Gal trisaccharide], for which the “X-ray crystal structure (co-crystal, 1.6-1.7 Å)” value in data set [1] (three lectin-domain sugar sites (α, β, γ), 1:20 MOA:sugar) was “The three sugar binding sites of MOA show a different preference for the anomeric form”.

B1: Marasmius oreades agglutinin (MOA), wild type (enzyme)
chain: MSLRRGIYHIENAGVPSAIDLKDGSSSDGTPIVGWQFTPDTINWHQLWLAEPIPNVADTFTLCNLFSGTYMDLYNGSSEAGTAVNGWQGTAFTTNPHQLWTIKKSSDGTSYKIQNYGSKTFVDLVNGDSSDGAKIAGWTGTWDEGNPHQKWYFNRMSVSSAEAQAAIARNPHIHGTYRGYILDGEYLVLPNATFTQIWKDSGLPGSKWREQIYDCDDFAIAMKAAVGKWGADSWKANGFAIFCGVMLGVNKAGDAAHAYNFTLTKDHADIVFFEPQNGGYLNDIGYDSYMAFY
notes: Marasmius oreades agglutinin, wild-type cDNA in vector MOApT7-LO; 293 amino acids; Homodimer; one protomer in the asymmetric unit, the dimer arises by crystallographic symmetry; source: E. coli BL21 (DE3), purified (D-Gal-sepharose, cation exchange, size exclusion)
For B1, the binding result in data set [2] is on record as “binds”.
